Source: paper PMC8125528 (Molecules, 2021)
Read-outs that look alike come from different tables or passages of the source.

Legend:
[1] = test system: estrogen-sensitive breast cancer T47-D cells (ER+); test: E-screening (estrogenicity) assay in T47-D cells; type: cell-based; settings: 0.001 and 0.01 µM, vs. negative control, MTT readout
Description: After overnight incubation, the medium was replaced every 3 days with fresh phenol red free RPMI 1640 medium supplemented with 5% of dextran-coated charcoal-treated fetal calf serum (DCC-FCS) and containing compound 11 (0.1, 0.01 and 0.001 µM). […] Each experiment was performed in quadruplicate and independently repeated.

[2] = test system: MCF-7 cells; test: MTT antiproliferative assay, MCF-7; type: cell-based; settings: for IC50: Homo sapiens, MCF7, breast MCF-7 cells, 72 h, MTT assay, 0.1-100 µM, read-out: Estimated IC50, MCF-7; for Selectivity index, MCF-7: ratio of IC50 in NHDF to IC50 in MCF-7
Description: (§1) Each experiment was performed in quadruplicate and independently repeated.

[3] = test system: T47-D cells; test: MTT antiproliferative assay, T47-D; type: cell-based; settings: for IC50: Homo sapiens, T47D, breast T47-D cells, 72 h, MTT assay, 0.1-100 µM, read-out: Estimated IC50, T47-D; for Selectivity index, T47-D: ratio of IC50 in NHDF to IC50 in T47-D
Description: as §1

[4] = test system: LNCaP cells; test: MTT antiproliferative assay, LNCaP; type: cell-based; settings: for IC50: Homo sapiens, prostate LNCaP cells, MTT assay, 0.1-100 µM, read-out: Estimated IC50, LNCaP; for Selectivity index, LNCaP: ratio of IC50 in NHDF to IC50 in LNCaP
Description: as §1

[5] = test system: HepaRG cells; test: MTT antiproliferative assay, HepaRG; type: cell-based; settings: for IC50: Homo sapiens, liver HepaRG cells, 72 h, MTT assay, 0.1-100 µM, read-out: Estimated IC50, HepaRG; for Selectivity index, HepaRG: ratio of IC50 in NHDF to IC50 in HepaRG
Description: as §1

[6] = in vitro; settings: human, Caco-2
Description: (§2) The antiproliferative effect of compounds was evaluated by the 3-(4,5-dimethylthiazol-2-yl)-2,5-diphenyltetrazolium bromide (MTT; Sigma-Aldrich, St Louis, MO, USA) assay in MCF-7, T47-D, LNCaP, HepaRG, Caco-2 and NHDF cells. After reaching near confluence, cells were trypsinized and counted with a hemocytometer by means of the trypan-blue exclusion of dead cells. Then, 100 µL of cell suspension (2 × 10^4 cells/mL) was seeded in 96-well culture plates and left to adhere and growth during 48 h. […] Afterward, MTT containing medium was removed and formazan crystals were dissolved in DMSO. Absorbance was measured at 570 nm using a microplate reader Bio-rad Xmark spectrophotometer. After background subtraction, cell proliferation values were expressed as percentage relatively to the absorbance determined in negative control cells. Untreated cells were used as the negative control and the clinical drug 5-fluorouracil (5-FU) was used as positive control. Each experiment was performed in quadruplicate and independently repeated.
(§3) Data were expressed as mean ± standard deviation (SD). t-Student test (two groups) and one-way ANOVA (three groups) were used followed by Bonferroni post hoc tests to determine statistically significant differences among the means.

[7] = test system: Caco-2 cells; test: cells; settings: Homo sapiens, Caco-2, 72 h, read-out: Estimated IC50, Caco-2
Description: as §2, §3

[8] = test system: normal human dermal fibroblasts (NHDF); test: MTT antiproliferative assay, NHDF; type: cell-based; settings: normal fibroblast NHDF cells, 72 h, 0.1-100 µM, read-out: Estimated IC50, NHDF
Description: as §1

[9] = test system: LNCaP cells; test: LNCaP cell viability by flow cytometry after propidium iodide staining; type: cell-based; settings: 50 µM, 24 h, PI flow cytometry
Description: The analysis of LNCaP cells viability was performed by flow cytometry after staining with propidium iodide (PI) (solution of PI 1 mg/mL in 0.1% of sodium azide and water; Sigma Aldrich, St Louis, MO, USA). Briefly, 3 mL of cells suspension were seeded in 6-well plates (5 × 10^4 cells/mL) in complete culture medium. After 48 h they were treated with 50 µM of compound 11. Untreated cells were used as negative control and 5-FU (50 µM) was used as positive control. Each experiment was performed in duplicate and independently repeated. At the end of 24 h of incubation, the supernatant of each well was collected, cells were harvested by trypsinization and pooled with the supernatants. The resulting cell suspension was kept on ice, pelleted by centrifugation and resuspended in 400 µL of complete medium. Afterward, 395 µL of the cell suspension was transferred to a FACS tube and 5 µL of PI and 0.5 µL of ethylenediamine tetraacetic acid (EDTA, 0.123 M) were added. A minimum of 20,000 events was acquired using a BD Accuri C6 (San Jose, CA, USA) flow cytometer in the channels forward scatter (FSC), side scatter (SSC) and fluorescence channel-3 (FL3, for PI). Acquisition and analysis were performed with BD Accuri Software. […]

[10] = test system: LNCaP cells; test: Cell cycle distribution of LNCaP cells by flow cytometry; type: cell-based; settings: 50 µM, 24 h
Description: After 24 h of treatment with compound 11 at 50 µM (6-well plates, 5 × 10^4 cells/mL), LNCaP cells were collected and washed with PBS and resuspended in 450 µL of a cold solution of 0.5% bovine serum albumin (BSA; Amresco, Solon, OH, USA) and 1 mM EDTA in PBS, followed by fixation with 70% EtOH and kept at −20 °C. Afterward, fixed cells were washed twice with PBS and resuspended in a solution of PI (50 µg/mL) prepared in 0.5% BSA and 1 mM EDTA in PBS and then incubated with Ribonuclease A from bovine pancreas at a final concentration of 0.5 µg/µL (solution in 50% glycerol, 10 mM Tris-HCl, pH 8; Sigma Aldrich, St Louis, MO, USA) for 15 min in the dark. For comparison, untreated cells were used as negative control and cells treated with 5-FU at 50 µM were used as positive control. Each experiment was performed in duplicate and independently repeated. A minimum of 10,000 events was acquired using BD Accuri Software and analysis was performed by Modfit software (Becton Dickinson, San Jose, CA, USA).

[11] = test system: LNCaP cells; test: Fluorescence microscopy of LNCaP cells after Hoechst 33258 DNA staining; type: cell-based; settings: 50 µM, 24 h
Description: Near-confluent LNCaP cells were seeded in a 6-well plate (5 × 10^4 cells/mL). After adherence and incubation for 24h with compound 11 (50 µM), the dye Hoechst 33,258 was added to the culture medium to achieve a final concentration of 1µg/mL. The cells were incubated for 15 min at 37 °C and were then photographed by means of a Nikon Eclipse microscope equipped with a fluorescence attachment containing the appropriate optical blocks and a QCapture CCD camera.

[12] = test system: uterine growth; parameters: method as in PMID 10447965; settings: ovariectomized rats; cited from earlier work
[13] = test system: estrogen-sensitive breast cancer T47-D cells (ER+); parameters: method as in doi:10.5802/crchim.17; settings: previous study; cited from earlier work
[14] = test system: HepaRG cell cycle; parameters: method as in doi:10.5802/crchim.17; settings: HepaRG cells; cited from earlier work
[15] = test system: 17β-HSD1; settings: at 10 μM; cited from earlier work
[16] = test system: MCF-7, T47D, LNCaP, HepaRG, Caco-2 and NHDF cell lines; test: MTT screening at 30 µM in six cell lines; type: cell-based; settings: 72 h
Description: as §1

For `C[C@]12CC[C@@H]3c4ccc(O)cc4CC[C@H]3[C@@H]1CC[C@@H]2O` [Compound E2, 17β-estradiol, reference compound], the “Proliferative/estrogenic effect on T47-D cells” value (“Proliferative/estrogenic effect” for short) [1] was “stimulated the cell proliferation”.
With `C[C@]12CC=C3c4ccc(O)cc4CCC3C1CCC2=NO` (stereo partly drawn) [Compound 11, 17-hydroxyimino-3-hydroxyestra-1,3,5(10),9(11)-tetraen-3-ol] the IC50 [2] was 25.6 µM, the “Selectivity index, MCF-7” value [2] was 1.20 and the IC50 [3] was 43.5 µM. For the same compound, the “Selectivity index, T47-D” value [3] was 0.71, the IC50 ([4]; 72 h) was 3.59 µM and the “Reduction of cell proliferation in screening” value ([4]; LNCaP cells, 30 µM, 72 h, MTT) was “significant reduction of LNCaP cells proliferation”. For the same compound, the “Selectivity index, LNCaP” value [4] was 8.59, the IC50 [5] was 18.4 µM and the “Selectivity index, HepaRG” value [5] was 1.68. The selectivity ratio at 72 h [6] was 1.27, the IC50 [7] was 24.3 µM and the IC50 [8] was 30.8 µM. The “Proliferative/estrogenic effect” value [1] was “stimulated the cell proliferation”, the “Reduction in cell viability” value [9] was 11% and the “Effect on cell cycle distribution” value [10] was “induced a G2/M cell cycle arrest”. The “Nuclei morphology (Hoechst 33,258)” value [11] was “condensed DNA, typical of prophase, and a small proportion of condensed and fragmented nuclei, typical of apoptosis”.
In the case of `C[C@]12CC[C@@H]3c4cc(I)c(O)c(I)c4CC[C@H]3[C@@H]1CCC2=NO` [Compound 10, 17-hydroxyimino-2,4-diiodooestra-1,3,5(10)-trien-3-ol], the IC50 [5] is reported as 28 µM.
For `C[C@]12CC[C@@H]3c4ccc(OS(N)(=O)=O)cc4CC[C@H]3[C@@H]1CCC2=O` [EMATE, estrone sulfamate], the “Stimulatory effect on the uterine growth” value [12] is listed as 0.11 g.
For `C[C@]12CC=C3c4ccc(O)cc4CCC3C1CCC2=O` (stereo partly drawn) [Compound 8, Δ^9,11-E1], the “Proliferative/estrogenic effect” value [13] is given as “stimulated the proliferation of T47-D cells” and the “Effect on cell cycle” value [14] is given as “induced an arrest at G0/G1”.
In the case of `CC12CCC3c4ccc(O)cc4CCC3C1CC(=NO)C2=O` (stereo not drawn) [Compound 16-oxime], the “% inhibition of 17β-HSD1” value [15] is given as 96%.
In the case of `C[C@]12CC[C@@H]3c4ccc(O)cc4CC[C@H]3[C@@H]1CCC2=NO` [Compound 2, 17-hydroxyiminoestra-1,3,5(10)-trien-3-ol], the IC50 [2] is reported as 26.7 µM, the “Selectivity index, MCF-7” value [2] is reported as 1.65 and the IC50 [3] is reported as 29.3 µM. The “Selectivity index, T47-D” value [3] was 1.50, the IC50 [5] was 16.9 µM and the “Selectivity index, HepaRG” value [5] was 2.59. It also gave an IC50 [8] of 43.9 µM.
`C[C@]12CC[C@@H]3c4cc([N+](=O)[O-])c(O)cc4CC[C@H]3[C@@H]1CCC2=NO` [Compound 5, 17-hydroxyimino-2-nitroestra-1,3,5(10)-trien-3-ol] showed an IC50 [2] of 16.8 µM, an IC50 [5] of 12.3 µM and an IC50 [7] of 18.5 µM.
For `C[C@]12CCC3c4ccc(OS(N)(=O)=O)cc4CCC3C1CC/C2=N\O` (stereo partly drawn) [OMATE, estrone oxime sulfamate], the “Stimulatory effect on the uterine growth” value [12] is given as 0.15 g.
In the case of `C[C@]12CC[C@@H]3c4ccc(O)cc4CC[C@H]3[C@@H]1CCC2=O` [Compound 1, estrone, reference compound], the IC50 [2] is reported as 41.9 µM, the IC50 [5] is reported as 29.5 µM and the IC50 [7] is reported as 42.7 µM. For the same compound, the IC50 [8] was 61.8 µM.
Work on `C[C@]12CCC3c4cc(Br)c(O)c(Br)c4CCC3C1CCC2=NO` (stereo partly drawn) [Compound 12, 17-hydroxyimino-2,4-dibromo-3-hydroxyestra-1,3,5(10)-trien-3-ol] yielded an IC50 [5] of 21.9 µM.
For `C[C@]12CC[C@@H]3c4cc([N+](=O)[O-])c(O)c([N+](=O)[O-])c4CC[C@H]3[C@@H]1CCC2=NO` [Compound 6, 17-hydroxyimino-2,4-dinitroestra-1,3,5(10)-trien-3-ol], the “Cytotoxic/antiproliferative effect in screening” value [16] was “low antiproliferative activity”.
With `O=c1[nH]cc(F)c(=O)[nH]1` [Compound 5-FU, 5-fluorouracil, reference compound] the “Selectivity index, MCF-7” value [2] was 2.11, the IC50 [3] was 0.54 µM and the “Selectivity index, T47-D” value [3] was 6.69. The IC50 ([4]; 72 h) was 7.79 µM, the “Selectivity index, LNCaP” value [4] was 0.46 and the IC50 [5] was 1.78 µM. The “Selectivity index, HepaRG” value [5] was 2.03, the selectivity ratio at 72 h [6] was 2.76 and the IC50 [7] was 1.31 µM. The IC50 [8] was 3.61 µM, the “Reduction in cell viability” value [9] was 12% and the “Effect on cell cycle distribution” value [10] was “not able to pass through to the S and G2/M phases”.
